Measured values published in US5449676A, “Pyridazines” (priority 1991, dated 1995).
Where two headings read alike, the source gives them in different places.

How the values were obtained:
PDE IV [1] = assay: inhibition of PDE IV isolated from human polymorphonuclear neutrophilic cells (PMNs); assay type: biochemical; conditions: for PDE IV hum. PMNs -lg[IC50 ]: negative logarithm of IC50, cAMP 0.5 μmol/l; for [IC50 ] PDE III/[IC50 ] PDE IV PMNs: selectivity ratio, PDE III hum. platelets vs PDE IV hum. PMNs
Source text: (§1) The specific inhibition of phosphodiesterase IV (PDE IV=high-affinity cAMP-PDE which cannot be inhibited by cGMP, rolipram-sensitive) is regarded as particularly indicative of an expected bronchospasmolytic and/or antiinflammatory effect. The specificity of the inhibition is moreover described by the ratio [IC50 ]PDE-III /[IC50 ]PDE-IV (PDE III=high-affinity cAMP-PDE which can be inhibited by cGMP) [H. Hidaka et al., Adv. Cycl. Nucl. Res. 13, 145 (1984); TiPS 5, 237 (1984); R. Weishaar et al., J. Med. Chem. 28, (1985); S. A. Harrison et al., Molec. Pharmac. 29, 506 (1986); J. Klein-Tebbe et al., Allergologie 12, 12 (1989); C. Schudt et al., Allergologie 12, 12, (1989); C. Schudt et al., Agents and Action 1991 in press; C. D. Nicholson et al., TiPS 12, (1), 19 (1991)].
(§2) For this reason, the PDE inhibition by the compounds according to the invention was determined on a PDE III isolated from human platelets and on PDE IV isolated from human polymorphonuclear neutrophilic cells (PMNs) and from the dog trachea. Phosphodiesterases III and IV are isolated by chromatography as described by Polson et al., Biochem. Pharmacol. 31, 3403-3406 (1982).
(§3) The substances are dissolved and diluted further in DMSO. 2.1 μl samples from a series of solutions diluted up to 100 fold are mixed with 212 μl of reaction mixture. The reaction mixture contains Hepes (100 mmol/l), DTE (5 mmol/l), MgCl2 (5 mmol/l), CaCl2 (10 μmol/l), BSA fraction V 0.5 mg, ml, cAMP 0.5 μmol/l, 2,8-^3 H-cAMP 250,000 cpm/ml (0.3 μCi/ml, S.A. […]), SV (snake venom) 25 μg/212 μl of test mixture.

tracheal rings = assay: bronchospasmolytic effect on the chain of tracheal rings from guinea pigs in vitro; assay type: cell-based; conditions: for EC50: Cavia porcellus, read-out: -lg[EC50 ] (converted); for EC50 / -lg[EC50 ]: negative logarithm of EC50 mol/l, 50% of maximum achievable relaxation; for [EC50 ] theophylline/[EC50 ] substance: ratio of EC50 values, theophylline vs substance
Description: The bronchospasmolytic effect of the compounds on the chain of tracheal rings from guinea pigs was tested in vitro as follows:
Thus, a complete dose-effect plot for the test substance is obtained over a period of 20 to 30 minutes. The particular relaxation is expressed as a percentage fraction of the maximum relaxation achievable by administration of (-)isoprenaline (10^-6 mol/l).

PDE III = target: T1, PDE III (Homo sapiens, UniProt Q14432); assay: inhibition of PDE III isolated from human platelets; assay type: biochemical; conditions: negative logarithm of IC50; cAMP 0.5 μmol/l; read-out: PDE III hum. platelets -lg[IC50 ] (converted)
T1 construct: PDE III isolated from human platelets; from tissue; host or cells: human platelets
Source text: as §1, §2, §3

[2] = tested on: acetylcholine-induced bronchospasm; assay: protective effect against acetylcholine-induced bronchospasm in conscious guinea pigs; assay type: in vivo; conditions: oral, 30 minutes after administration, percentage of protected animals; for responders at 10 µmol/kg: 10 μmol/kg
Description: In addition, the bronchospasmolytic effect was tested on the "protective effect against acetylcholine-induced bronchospasm in conscious guinea pigs" model:
Guinea pigs (250-350 g) are exposed in a closed Plexiglass cylinder (volume […] ) to an acetylcholine mist (0.06% in 0.9% sodium chloride solution; Heyer Use 77 ultrasonic atomizer) before administration of the substance and twice at an interval of 20 minutes after administration of the substance. The time from the start of atomization to the onset of marked breathing difficulties (in some cases hypoxic convulsion in the lateral position) is measured and called the latency time. An increase in the latency time after administration of the substance to at least three times the average latency time before administration of the substance is regarded as a protective effect, and the number of protected animals in the group is determined. […]
[…] After 30 minutes, the animals are again exposed to the acetylcholine mist and the latency times are measured. An increase in the latency time to at least three times the length is regarded as a protective effect.

PDE IV [3] = assay: inhibition of PDE IV isolated from dog trachea; assay type: biochemical; conditions: for PDE IV dog trachea -lg[IC50 ]: negative logarithm of IC50, cAMP 0.5 μmol/l; for [IC50 ] PDE III/[IC50 ] PDE IV dog tr.: selectivity ratio, PDE III hum. platelets vs PDE IV dog trachea
Source text: as §1, §2, §3

[4] = tested on: histamine-induced bronchospasm; assay: histamine-induced bronchospasm in anesthetized guinea pigs; assay type: in vivo; conditions: for inhibition in vivo at 5 µmol/kg / inhibition in vivo at 10 µmol/kg / inhibition in vivo at 20 µmol/kg / inhibition in vivo at 60 µmol/kg / inhibition in vivo at 100 µmol/kg: Cavia porcellus; for inhibition in vivo at 5 µmol/kg: 5 μmol/kg; for inhibition in vivo at 10 µmol/kg: 10 μmol/kg
Description: One histamine spasm before administration of the substance was compared with several histamine spasms after administration of the substance. The test substances were administered intravenously (i.v.) and/or intrajejunally (i.j.).

[5] = Cavia porcellus, 0.5 h, 100 μmol/kg
[6] = iv, after 1 h, read-out: % inhibition after 1 h of the histamine-induced decrease in Vmax
[7] = iv, average 0-1 h after administration, read-out: % inhibition (0-1 h) of the histamine-induced decrease in Vmax
[8] = iv, 20 μmol/kg, after 1 h, read-out: % inhibition after 1 h of the histamine-induced decrease in Vmax
[9] = iv, 20 μmol/kg, average 0-1 h after administration, read-out: % inhibition (0-1 h) of the histamine-induced decrease in Vmax
[10] = 1 h, read-out: % inhibition (0-1 h) of the histamine-induced decrease in Vmax
[11] = 1 h, read-out: % inhibition after 1 h of the histamine-induced decrease in Vmax
[12] = iv, 1 h, read-out: % inhibition (0-1 h) of the histamine-induced decrease in Vmax
[13] = iv, 1 h, read-out: % inhibition after 1 h of the histamine-induced decrease in Vmax

T1 sequence (Q14432 whole entry): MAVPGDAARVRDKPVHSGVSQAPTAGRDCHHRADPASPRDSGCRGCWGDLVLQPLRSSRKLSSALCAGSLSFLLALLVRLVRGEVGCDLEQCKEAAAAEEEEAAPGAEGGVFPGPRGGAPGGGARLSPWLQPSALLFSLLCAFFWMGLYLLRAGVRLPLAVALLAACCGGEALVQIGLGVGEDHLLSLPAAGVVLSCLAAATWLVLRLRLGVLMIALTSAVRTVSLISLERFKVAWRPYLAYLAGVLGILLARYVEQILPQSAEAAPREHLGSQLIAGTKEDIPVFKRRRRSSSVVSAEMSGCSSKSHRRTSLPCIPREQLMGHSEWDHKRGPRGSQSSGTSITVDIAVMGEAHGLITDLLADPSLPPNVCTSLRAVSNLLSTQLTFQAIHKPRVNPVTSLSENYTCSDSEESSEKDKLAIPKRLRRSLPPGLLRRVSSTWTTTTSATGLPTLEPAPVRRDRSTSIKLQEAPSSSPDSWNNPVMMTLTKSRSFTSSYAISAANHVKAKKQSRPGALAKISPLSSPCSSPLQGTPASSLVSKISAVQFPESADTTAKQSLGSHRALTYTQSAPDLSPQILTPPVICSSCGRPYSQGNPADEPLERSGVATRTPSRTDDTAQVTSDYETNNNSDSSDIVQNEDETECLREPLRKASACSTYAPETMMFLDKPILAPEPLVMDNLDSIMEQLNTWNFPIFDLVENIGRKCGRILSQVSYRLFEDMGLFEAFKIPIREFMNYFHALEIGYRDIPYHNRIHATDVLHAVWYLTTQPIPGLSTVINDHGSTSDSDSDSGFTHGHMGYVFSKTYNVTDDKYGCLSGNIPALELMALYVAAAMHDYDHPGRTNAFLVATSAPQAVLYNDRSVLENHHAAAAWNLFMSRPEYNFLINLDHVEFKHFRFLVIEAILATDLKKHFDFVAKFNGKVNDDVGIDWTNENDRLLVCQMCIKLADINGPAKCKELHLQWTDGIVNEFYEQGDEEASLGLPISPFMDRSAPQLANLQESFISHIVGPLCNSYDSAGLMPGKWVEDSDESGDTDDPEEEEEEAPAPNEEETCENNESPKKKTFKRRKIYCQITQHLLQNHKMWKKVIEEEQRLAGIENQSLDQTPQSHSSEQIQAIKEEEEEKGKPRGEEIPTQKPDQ

Row | Molecule | PDE IV hum. PMNs -lg[IC50 ] (PDE IV [1]) | [IC50 ] PDE III/[IC50 ] PDE IV PMNs (PDE IV [1]) | EC50 (tracheal rings) | [EC50 ] theophylline/[EC50 ] substance (tracheal rings) | IC50 (PDE III) | responders at 100 µmol/kg [2, 5] | also measured
1 | CC(C)COc1cc(-c2ccc(N)[n+]([O-])n2)ccc1OC(F)F [compound 23] | 7.03 | 1350 | 3.02 µM | 44.7 | 126 µM | – | –
2 | CC(C)Oc1cc(-c2ccc(N)[n+]([O-])n2)ccc1OC(F)F [compound 22] | 6.26 | 21.9 | 3.02 µM | 44.7 | 12 µM | 60% | –
3 | COc1ccc(-c2ccc(N)nn2)cc1OC1CCCCCC1 [Serial No. 8, 3-amino-6-(3-cycloheptyloxy-4-methoxyphenyl)pyridazine] | – | – | – | – | 77.6 µM | – | PDE IV dog trachea -lg[IC50 ] (PDE IV [3]): 5.37; [IC50 ] PDE III/[IC50 ] PDE IV dog tr. (PDE IV [3]): 18.2
4 | 3-amino-6-(4-difluoromethoxy-3-methoxyphenyl)pyridazine [Serial No. 11] | – | – | – | 20.4 | – | – | % protective effect ([2]; 30 μmol/kg): 35%; % protective effect ([2]; 100 μmol/kg, listed as 4): 35%; % protective effect ([2]; 100 μmol/kg, listed as 6): 85%; -lg[EC50 ] (tracheal rings): 5.18; % inhibition after 1 h of the histamine-induced decrease in Vmax ([4]; i.v., 20 μmol/kg, after 1 h): is; % inhibition (0-1 h) of the histamine-induced decrease in Vmax ([4]; i.v., 20 μmol/kg, average 0-1 h after administration): 22%
5 | Nc1ccc(-c2ccc(OC(F)F)c(OC3CCCC3)c2)n[n+]1[O-] [compound 24] | 7.24 | 832 | 2.04 µM | 65.5 | 47.9 µM | 60% | –
6 | Nc1ccc(-c2ccc(OC(F)F)c(OC3CCCC3)c2)nn1 [compound 14] | 7.15 | 1466 | 6.61 µM | 20.4 | 53.7 µM | – | –
7 | COc1ccc(-c2ccc(N)nn2)cc1OC1CCCCC1 [Serial No. 7, 3-amino-6-(3-cyclohexyloxy-4-methoxyphenyl)pyridazine] | – | – | – | – | 60.3 µM | – | PDE IV dog trachea -lg[IC50 ] (PDE IV [3]): 5.17; [IC50 ] PDE III/[IC50 ] PDE IV dog tr. (PDE IV [3]): 8.9
8 | 3-amino-6-(4-difluoromethoxy-3-ethoxyphenyl)pyridazine 2-oxide [Serial No. 19] | – | – | – | 14.5 | – | – | % protective effect ([2]; 100 μmol/kg): 35%; -lg[EC50 ] (tracheal rings): 5.03
9 | Nc1ccc(-c2ccc(OC(F)F)c(OCC3CC3)c2)nn1 [compound 18] | 7.47 | 4265 | – | – | 145 µM | 75% | responders at 10 µmol/kg ([2]; Cavia porcellus, 0.5 h): 75%; inhibition in vivo at 5 µmol/kg [4, 6]: 49%; inhibition in vivo at 5 µmol/kg [4, 7]: 40%; inhibition in vivo at 10 µmol/kg [4, 6]: 38%; inhibition in vivo at 10 µmol/kg [4, 7]: 33%; inhibition in vivo at 20 µmol/kg [4, 8]: 35%; inhibition in vivo at 20 µmol/kg [4, 9]: 31%; inhibition in vivo at 10 µmol/kg ([4]; i.j. admin., after 1 h, read-out: % inhibition after 1 h of the histamine-induced decrease in Vmax): 43%; inhibition in vivo at 10 µmol/kg ([4]; i.j. admin., average 0-1 h after administration, read-out: % inhibition (0-1 h) of the histamine-induced decrease in Vmax): 32%
10 | Nc1ccc(-c2ccc(OC(F)F)c(OCC(F)(F)F)c2)n[n+]1[O-] [compound 25] | 6.42 | 186 | 0.355 µM | 380 | 70.8 µM | 70% | responders at 10 µmol/kg ([2]; Cavia porcellus, 0.5 h): 45%; inhibition in vivo at 20 µmol/kg [4, 8]: 33%; inhibition in vivo at 20 µmol/kg [4, 9]: 34%
11 | CC(C)COc1cc(-c2ccc(N)nn2)ccc1OC(F)F [compound 17] | 6,96 | 1466 | – | – | 151 µM | – | –
12 | CCOc1ccc(-c2ccc(N)[n+]([O-])n2)cc1OC(F)F [compound 21] | 5.19 | 6.9 | 0.562 µM | 240 | 44.7 µM | – | –
13 | Nc1ccc(-c2ccc(OC(F)F)c(OCC3CC3)c2)n[n+]1[O-] [compound 26] | 7.48 | 550 | 1 µM | 135 | 18.2 µM | – | responders at 10 µmol/kg ([2]; Cavia porcellus, 0.5 h): 70%; inhibition in vivo at 20 µmol/kg [4, 8]: 12%; inhibition in vivo at 20 µmol/kg [4, 9]: 15%
14 | COc1cc(-c2ccc(N)nn2)ccc1OC(C)C [Serial No. 5, 3-amino-6-[3-methoxy-4-(1-methylethoxy)phenyl]pyridazine] | – | – | – | – | – | 45% | –
15 | Cn1c(=O)c2[nH]cnc2n(C)c1=O [Theophylline, reference compound] | 3.77 | – | – | – | – | 20% | responders at 200 µmol/kg ([2]; Cavia porcellus, 0.5 h, 200 μmol/kg): 40%; responders at 400 µmol/kg ([2]; Cavia porcellus, 0.5 h, 400 μmol/kg): 70%; inhibition in vivo at 20 µmol/kg [4, 10]: 11%; inhibition in vivo at 60 µmol/kg [4, 10]: 37%; inhibition in vivo at 100 µmol/kg [4, 10]: 45%; inhibition in vivo at 20 µmol/kg [4, 11]: 8%; inhibition in vivo at 60 µmol/kg [4, 11]: 42%; inhibition in vivo at 100 µmol/kg [4, 11]: 44%; inhibition in vivo at 20 µmol/kg [4, 12]: 13%; inhibition in vivo at 60 µmol/kg [4, 12]: 25%; inhibition in vivo at 100 µmol/kg [4, 12]: 34%; inhibition in vivo at 20 µmol/kg [4, 13]: 5%; inhibition in vivo at 60 µmol/kg [4, 13]: 12%; inhibition in vivo at 100 µmol/kg [4, 13]: 22%
16 | CC(C)Oc1cc(-c2ccc(N)nn2)ccc1OC(F)F [compound 15] | 6.78 | 794 | – | – | 107 µM | – | –
17 | 3-amino-6-(4-difluoromethoxy-3-methoxyphenyl)pyridazine 2-oxide [Serial No. 20] | – | – | – | 33.2 | – | – | % protective effect ([2]; 100 μmol/kg): 50%; -lg[EC50 ] (tracheal rings): 5.39
18 | Nc1ccc(-c2ccc(OC(F)F)c(OCC(F)(F)F)c2)nn1 [compound 16] | 6.88 | 2515 | – | – | 331 µM | – | –
